Source: patent US8071117B2, “Pheromones” (East Malling Research Limited, priority 2004, dated 2011)
Entries after “also recorded” stand apart in the source; their conditions may differ.

How the values were obtained:
[1] = test system: male midge EAG preparation (raspberry cane midge); test: GC-EAG analysis with male midge EAG preparation; design: species or system Resseliella theobaldi; conditions: volatiles from female midges, polar GC column
Procedure: GC-EAG analyses were carried out with a […] GC (Agilent) fitted with capillary GC columns ([…]×0.32 mm i.d.) coated with polar (Wax10; Supelco) and non-polar (SPB 1; Supelco) phases. Injection was splitless (220° C.) and detection was by FID (250°). The oven temperature was programmed from 50° C. for 2 min, then at 10° C./min to 250° C. The GC column effluent was split (1:1) between the FID and a silanised glass T-piece in the column oven. Nitrogen (500 ml/min) was blown continuously over the EAG preparation and every 17 sec this was diverted through the T-piece for 3 sec, blowing the contents over the EAG preparation, as described by Cork et al. (1991).
Following experience working with other midge species, the EAG preparation was set up by suspending the whole insect between glass electrodes containing electrolyte (0.1 M potassium chloride with 10% polyvinylpyrrolidone added to reduce evaporation). The ends of both antennae were inserted into the recording electrode and the body into the reference electrode. The electrodes were inserted into silver/silver chloride electrodes held in micromanipulators on the portable EAG device developed by Syntech (INR-02; Syntech, Hilversum, The Netherlands).
Major female-specific component is at 14.24 min; 2-undecanone at 9.07 min, 2-acetoxyundecane at 9.77 min and 2-undecanol at 10.45 min. EAG signals at 13.2 min and 14.9 min are probably interference spikes.

[2] = Rate of release of pheromone components from lures in laboratory wind tunnel; type: physicochemical; conditions: for Mean release rate: 27° C., 8 km/hr wind speed; for Mean ratio (release rate to the major component): major component = 100
Procedure: Measurements were made of the rates of release of the components from lures maintained in a laboratory wind tunnel at 27° C. and 8 km/hr wind speed. Volatiles were collected onto Porapak Q under same conditions for approximately 2 hours and the collections were analysed by Gas Chromatography with a flame ionisation detector using a polar column.
Release rates (ng/hr) and their ratios to the major component are shown.

[3] = test system: male raspberry cane midges; test: Field studies: sticky traps baited with rubber septum or polythene vial lures in raspberry plantations; type: in vivo, Resseliella theobaldi; conditions: for Mean total number males captured per trap (n): Log10(n + 1) / Mean total number males captured per trap (n): n: 11 May-7 Jun 2005, 10 plantations; for attractiveness to raspberry cane midge males (in words): field tests
Source text: • A) Sticky traps baited with a rubber septum or polythene vial lure containing 100 microgrammes of racemic 2-acetoxy-5-undecanone were deployed in ten raspberry plantations at Belks farm, Otham, Kent, Beech Farm, West Peckham Kent and East Malling Research between 11 May and 31 May 2005. An average of 153 male raspberry cane midges were caught, per trap, compared to an average of 1 in similar traps not baited with a lure. […] Sticky traps baited with a rubber septa or polythene vial lure containing 100 micrograms of racemic 2-acetoxy-5-undecanone alone or in admixture with 30 micrograms of racemic 2-undecanol, 30 micrograms of undecanone and 30 micrograms of racemic 2-undecyl acetate were deployed in ten raspberry plantations, 4 at Belks farm, Otham, Kent, 4 at Beech Farm, West Peckham Kent and 2 at East Malling Research, Kent between 11 May and 7 Jun. 2005 in a randomised complete block experimental design with the 10 different plantations as blocks.
The baited traps caught an average of 201 male raspberry cane midges per trap compared to an average of 1 in similar traps not baited with a lure.

male apple leaf midges = test: Field studies: sticky delta traps baited with synthetic lures in apple orchards; type: in vivo, Dasineura mali; conditions: for males caught: 19-27 May 2004; for attractiveness to male apple leaf midges (in words): in vivo; for average male midges caught: 5 replicate traps, 7 May-20 May 2004, East Malling; for average male apple leaf midges caught: 24-27 May 2004
Source text: A) Sticky delta traps baited with the synthetic lures impregnated with racemic (Z)-13-acetoxy-8-heptadecen-2-one were deployed in apple orchards. Large numbers of male apple leaf midges were caught in traps baited with the compound dispensed into the atmosphere from rubber septa.

Structure (SMILES) | EAG response [1] | Mean release rate ([2]; Interval 3 days, Septa) [ng/h] | Mean ratio (release rate to the major component) ([2]; Interval 3 days, Septa) | Mean release rate ([2]; Interval 3 days, Vial) [ng/h] | Mean ratio (release rate to the major component) ([2]; Interval 3 days, Vial) | Mean release rate ([2]; Interval 5 days, Vial) [ng/h] | Mean ratio (release rate to the major component) ([2]; Interval 5 days, Vial) | Mean release rate ([2]; Interval 11 days, Septa) [ng/h] | Mean ratio (release rate to the major component) ([2]; Interval 11 days, Septa) | Mean release rate ([2]; Interval 11 days, Vial) [ng/h] | Mean ratio (release rate to the major component) ([2]; Interval 11 days, Vial) | Mean release rate ([2]; Interval 25 days, Vial) [ng/h] | Mean ratio (release rate to the major component) ([2]; Interval 25 days, Vial) | Mean release rate ([2]; Interval 26 days, Septa) [ng/h] | Mean ratio (release rate to the major component) ([2]; Interval 26 days, Septa) | other results
CCCCCCCCCC(C)O (racemic) [2-undecanol] | probably responses | 20.2 | 25 | 19.5 | 52 | 21.1 | 45 | 27.4 | 81 | 29.4 | 36 | 17.4 | 25 | 7.4 | 25 | 
CCCCCCCCCC(C)OC(C)=O (racemic) [2-undecyl acetate, 2-acetoxyundecane] | probably responses | 30.8 | 38 | 23.8 | 64 | 20.6 | 44 | 14.5 | 43 | 31.7 | 39 | 21.8 | 31 | 8.9 | 30 | 
CCCCCCC(=O)CCC(C)OC(C)=O (racemic) [racemic 2-acetoxy-5-undecanone, 2-acetoxy-5-undecanone] |  | 81.8 | 100 | 37.1 | 100 | 47.0 | 100 | 33.8 | 100 | 81.8 | 100 | 69.8 | 100 | 29.5 | 100 | average male raspberry cane midges caught per trap ([3]; 100 microgrammes lure, rubber septum or polythene vial, ten plantations, 11 May-31 May 2005): 153; Mean total number males captured per trap (n): Log10(n + 1) ([3]; Dispenser Septa): 1.969; Mean total number males captured per trap (n): n ([3]; Dispenser Septa): 218; Mean total number males captured per trap (n): Log10(n + 1) ([3]; Dispenser Vial): 2.042; Mean total number males captured per trap (n): n ([3]; Dispenser Vial): 230; attractiveness to raspberry cane midge males (in words) [3]: highly attractive; also recorded: attracted a significant number; attractiveness to raspberry cane midge males (in words) ([3]; listed as 2-acetoxy-5-undecanone): work exceptionally well
CCCCC(CCC/C=C\CCCCCC(C)=O)OC(C)=O (racemic) [racemic (Z)-13-acetoxy-8-heptadecen-2-one, (Z)-13-acetoxy-8-heptadecen-2-one] |  |  |  |  |  |  |  |  |  |  |  |  |  |  |  | distance at which lures attract significant numbers of males (male apple leaf midges; 100 micrograms lure): at least 50 m; males caught (male apple leaf midges; 100 micrograms lure, 10 m from isolated infested orchard): 563; males caught (male apple leaf midges; 100 micrograms lure, 20 m from isolated infested orchard): 348; males caught (male apple leaf midges; 100 micrograms lure, 30 m from isolated infested orchard): 148; males caught (male apple leaf midges; 100 micrograms lure, 40 m from isolated infested orchard): 266; males caught (male apple leaf midges; 100 micrograms lure, 50 m from isolated infested orchard): 103; attractiveness to male apple leaf midges (in words) (male apple leaf midges): Large numbers; attractiveness to male apple leaf midges (in words) (male apple leaf midges; listed as 13-acetoxy-8-heptadecen-2-one): strongly attractive effect; attractiveness to male apple leaf midges (in words) (male apple leaf midges; listed as (Z)-13-acetoxy-8-heptadecen-2-one): racemic mixtures work exceptionally well; apple leaf midges attracted to a trap (male apple leaf midges; one test, in one day, released at approximately 1 ng/hr): 1,600; average male midges caught (male apple leaf midges; rubber septa 10 micrograms): 1201; average male midges caught (male apple leaf midges; rubber septa 100 micrograms): 4037; average male apple leaf midges caught (male apple leaf midges; rubber septum lure 1 microgram): 12; average male apple leaf midges caught (male apple leaf midges; rubber septum lure 3 microgram): 97; average male apple leaf midges caught (male apple leaf midges; rubber septum lure 10 microgram): 273
CCCCCCC(=O)CCC(C)OC(C)=O (single isomer, unassigned) [major female-specific component, 2-acetoxy-5-undecanone] | EAG response was always observed |  |  |  |  |  |  |  |  |  |  |  |  |  |  | 
CCCCCCCCCC(C)=O [2-undecanone] |  | 21.6 | 26 | 41.2 | 111 | 39.4 | 84 | 14.3 | 42 | 39.6 | 48 | 21.6 | 31 | 9.9 | 34 | 
